Results taken from patent publication US8598177B2, “Imidazopyridazines as PAR1 inhibitors, production thereof, and use as medicaments” (Sanofi, priority 2008, dated 2013).
Counter-ions that a name gives are not always drawn.

target: T1, PAR1 (Homo sapiens, UniProt P25116); test: Inhibition of PAR1-mediated platelet aggregation induced by TRAP; assay type: cell-based; conditions: washed platelets from healthy volunteer donors, TRAP (70-100 μM solution) as agonist, 96-well format, AUC at 650 nm, 37° C., 20 minutes
T1 construct: endogenous in cells; host or cells: washed platelets prepared from platelet-rich plasma of healthy volunteer donors
T1 sequence (P25116 22-425): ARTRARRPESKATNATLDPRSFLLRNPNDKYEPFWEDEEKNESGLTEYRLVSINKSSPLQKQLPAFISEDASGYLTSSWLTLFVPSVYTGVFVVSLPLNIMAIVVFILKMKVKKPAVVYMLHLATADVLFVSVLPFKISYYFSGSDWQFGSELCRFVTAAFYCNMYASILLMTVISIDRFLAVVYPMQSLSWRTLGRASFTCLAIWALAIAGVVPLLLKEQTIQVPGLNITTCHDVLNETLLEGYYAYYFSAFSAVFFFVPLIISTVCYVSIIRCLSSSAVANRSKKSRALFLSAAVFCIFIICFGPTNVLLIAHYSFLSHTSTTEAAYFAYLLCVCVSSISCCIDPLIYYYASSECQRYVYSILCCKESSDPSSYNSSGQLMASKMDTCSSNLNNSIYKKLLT
Protocol: PAR1 Determination Method: Inhibition of PAR1-Mediated Platelet Aggregation
The pharmacological testing of the substances took place in platelet aggregation induced by TRAP (thrombin receptor-activating peptide) in 96-well format. For this purpose, blood was taken from healthy volunteer donors in 20 ml syringes containing 2 ml of 3.13% sodium citrate solution. After centrifugation at 150×g for 20 minutes, the platelet-rich plasma (PRP) was separated off and mixed with 1 μl of PGE1 solution (500 μg/ml in ethanol)/ml of PRP. Incubation at room temperature for 5 minutes was followed by centrifugation at 120×g for 15 minutes to remove the leukocytes. The leukocyte-free PRP was transferred in 5 ml portions into 15 ml PP tubes and centrifuged at 360×g for 15 minutes in order to pellet the platelets. The plasma was then decanted off and the platelet sediment from 5 ml of PRP was resuspended in 1 ml of Tyrode's (120 mM NaCl, 2.6 mM KCl, 12 mM NaHCO3, 0.39 mM NaH2PO4×H2O, 10 mM HEPES, 0.35% BSA, 5.5 mM glucose, pH 7.4) and adjusted with Tyrode's to a platelet count of 3×10^5/microliter (4). 13 ml of this cell suspension were then mixed with 866 μL of 10 mM CaCl2 solution, and 120 μL thereof were pipetted into each well of a 96-well plate containing 15 μL of the substance to be tested. After incubation at room temperature in the dark for 30 minutes, 15 μL of a TRAP solution (70-100 μM) were added as agonist, and kinetics were recorded at 650 nm in a SpectraMax 340 at 37° C. for 20 minutes while shaking. The areas under the curves of negative control (Tyrode's/DMSO) and positive control (15 μl of agonist/DMSO) were calculated and the difference was fixed as the 100% value. The substances to be tested were pipetted as serial dilutions in duplicate determination, the AUC was likewise determined for each substance concentration, and the % inhibition of the AUC compared with the control was calculated. On the basis of the % inhibition, the IC50 was calculated by nonlinear regression analysis according to the 4-parameter equation.

IC50 [nM] | Structure (SMILES)
5 | CCOc1cc2cn(CC(=O)c3cc(NC(C)=O)cc(S(F)(F)(F)(F)F)c3)c(=N)n2nc1OCC [Example 1, trifluoroacetic acid salt]
4 | CCOc1cc2cn(CC(=O)c3cc(N4CCOCC4)c(OC)c(C(C)(C)C)c3)c(=N)n2nc1OCC [Example 3, 1-(3-tert-Butyl-4-methoxy-5-morpholin-4-ylphenyl)-2-(2,3-diethoxy-7-iminoimidazo-[1,5-b]pyridazin-6-yl)ethanone as trifluoroacetic acid salt]
180 | COc1nn2c(=N)n(CC(=O)c3cc(N4CCOCC4)c(OC)c(C(C)(C)C)c3)cc2cc1OCC(F)(F)F [Example 4, 1-(3-tert-Butyl-4-methoxy-5-morpholin-4-ylphenyl)-2-[7-imino-2-methoxy-3-(2,2,2-trifluoroethoxy)imidazo[1,5-b]pyridazin-6-yl]ethanone as trifluoroacetic acid salt]
